Results as given in ChEMBL document CHEMBL4028821, “Synthesis and structure-activity relationship study of pyrazolo[3,4-d]pyrimidines as tyrosine kinase RET inhibitors” (Bioorg Med Chem Lett, 2017).

Legend:
[1] = target: Proto-oncogene tyrosine-protein kinase receptor Ret (Mus musculus) (UniProt P35546); experiment: Inhibition of RET phosphorylation in mouse BAF3 cells harboring CCDC6-RET fusion protein after 2 hrs by Western blot method; assay type: cell-based
[2] = target: Proto-oncogene tyrosine-protein kinase receptor Ret (Mus musculus) (UniProt P35546); experiment: Inhibition of RET in mouse BAF3 cells harboring CCDC6-RET fusion protein assessed as suppression of STAT3 phosphorylation after 2 hrs by Western blot method; assay type: cell-based
BaF3 = experiment: Antiproliferative activity against mouse BAF3 cells harboring CCDC6-RET fusion protein after 72 hrs by CCK8 assay; details: BaF3, 72 h
[3] = target: Proto-oncogene tyrosine-protein kinase receptor Ret (Mus musculus) (UniProt P35546); experiment: Inhibition of RET in mouse BAF3 cells harboring CCDC6-RET fusion protein assessed as suppression of RET phosphorylation after 2 hrs by Western blot method; assay type: cell-based
[4] = target: Vascular endothelial growth factor receptor 2 (Homo sapiens, UniProt P35968); experiment: Inhibition of VEGFR2 (unknown origin) at 1 uM
Chain of Vascular endothelial growth factor receptor 2 (P35968 whole entry, the tested form may be a part): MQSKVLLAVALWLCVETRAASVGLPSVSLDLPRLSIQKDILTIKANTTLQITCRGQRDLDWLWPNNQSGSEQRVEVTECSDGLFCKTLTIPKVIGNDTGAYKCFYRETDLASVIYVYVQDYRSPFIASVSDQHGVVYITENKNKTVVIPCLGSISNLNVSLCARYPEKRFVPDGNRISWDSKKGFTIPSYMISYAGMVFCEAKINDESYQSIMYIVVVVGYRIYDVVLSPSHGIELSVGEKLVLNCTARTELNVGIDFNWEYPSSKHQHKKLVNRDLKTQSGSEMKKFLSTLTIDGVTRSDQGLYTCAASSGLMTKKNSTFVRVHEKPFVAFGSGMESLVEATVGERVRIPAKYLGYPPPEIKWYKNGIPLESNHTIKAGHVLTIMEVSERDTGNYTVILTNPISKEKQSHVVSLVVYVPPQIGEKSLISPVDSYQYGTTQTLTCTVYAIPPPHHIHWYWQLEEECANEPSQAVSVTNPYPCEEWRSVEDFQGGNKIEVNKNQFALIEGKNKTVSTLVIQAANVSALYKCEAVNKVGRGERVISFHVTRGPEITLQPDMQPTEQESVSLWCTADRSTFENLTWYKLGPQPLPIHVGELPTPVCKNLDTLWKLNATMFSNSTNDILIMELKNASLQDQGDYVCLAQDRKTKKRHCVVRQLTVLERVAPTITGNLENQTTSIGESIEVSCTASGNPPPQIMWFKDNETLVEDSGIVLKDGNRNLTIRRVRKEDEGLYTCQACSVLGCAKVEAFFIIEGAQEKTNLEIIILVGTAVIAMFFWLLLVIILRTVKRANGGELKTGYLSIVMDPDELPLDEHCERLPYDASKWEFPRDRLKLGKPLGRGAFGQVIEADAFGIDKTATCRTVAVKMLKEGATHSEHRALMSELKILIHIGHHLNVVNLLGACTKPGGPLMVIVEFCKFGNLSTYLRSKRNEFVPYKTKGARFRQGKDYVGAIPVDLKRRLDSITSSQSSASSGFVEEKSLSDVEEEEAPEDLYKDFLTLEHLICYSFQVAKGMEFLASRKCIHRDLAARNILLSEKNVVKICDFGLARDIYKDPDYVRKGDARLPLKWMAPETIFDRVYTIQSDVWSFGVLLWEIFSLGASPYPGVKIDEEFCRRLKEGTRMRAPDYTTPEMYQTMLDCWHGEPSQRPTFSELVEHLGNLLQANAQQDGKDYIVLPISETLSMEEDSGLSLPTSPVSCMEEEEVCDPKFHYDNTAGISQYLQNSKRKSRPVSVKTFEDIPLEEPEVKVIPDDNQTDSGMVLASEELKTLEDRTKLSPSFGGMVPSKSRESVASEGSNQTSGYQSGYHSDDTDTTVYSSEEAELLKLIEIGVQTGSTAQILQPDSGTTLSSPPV

[5] = target: Proto-oncogene tyrosine-protein kinase receptor Ret (Mus musculus) (UniProt P35546); experiment: Inhibition of RET in mouse BAF3 cells harboring CCDC6-RET fusion protein assessed as suppression of AKT phosphorylation after 2 hrs by Western blot method; assay type: cell-based
[6] = target: Proto-oncogene tyrosine-protein kinase receptor Ret (Homo sapiens, UniProt P07949); experiment: Inhibition of recombinant RET (unknown origin) using poly (Glu,Tyr) 4:1 substrate after 60 mins by ELISA
Chain of Proto-oncogene tyrosine-protein kinase receptor Ret (P07949 whole entry): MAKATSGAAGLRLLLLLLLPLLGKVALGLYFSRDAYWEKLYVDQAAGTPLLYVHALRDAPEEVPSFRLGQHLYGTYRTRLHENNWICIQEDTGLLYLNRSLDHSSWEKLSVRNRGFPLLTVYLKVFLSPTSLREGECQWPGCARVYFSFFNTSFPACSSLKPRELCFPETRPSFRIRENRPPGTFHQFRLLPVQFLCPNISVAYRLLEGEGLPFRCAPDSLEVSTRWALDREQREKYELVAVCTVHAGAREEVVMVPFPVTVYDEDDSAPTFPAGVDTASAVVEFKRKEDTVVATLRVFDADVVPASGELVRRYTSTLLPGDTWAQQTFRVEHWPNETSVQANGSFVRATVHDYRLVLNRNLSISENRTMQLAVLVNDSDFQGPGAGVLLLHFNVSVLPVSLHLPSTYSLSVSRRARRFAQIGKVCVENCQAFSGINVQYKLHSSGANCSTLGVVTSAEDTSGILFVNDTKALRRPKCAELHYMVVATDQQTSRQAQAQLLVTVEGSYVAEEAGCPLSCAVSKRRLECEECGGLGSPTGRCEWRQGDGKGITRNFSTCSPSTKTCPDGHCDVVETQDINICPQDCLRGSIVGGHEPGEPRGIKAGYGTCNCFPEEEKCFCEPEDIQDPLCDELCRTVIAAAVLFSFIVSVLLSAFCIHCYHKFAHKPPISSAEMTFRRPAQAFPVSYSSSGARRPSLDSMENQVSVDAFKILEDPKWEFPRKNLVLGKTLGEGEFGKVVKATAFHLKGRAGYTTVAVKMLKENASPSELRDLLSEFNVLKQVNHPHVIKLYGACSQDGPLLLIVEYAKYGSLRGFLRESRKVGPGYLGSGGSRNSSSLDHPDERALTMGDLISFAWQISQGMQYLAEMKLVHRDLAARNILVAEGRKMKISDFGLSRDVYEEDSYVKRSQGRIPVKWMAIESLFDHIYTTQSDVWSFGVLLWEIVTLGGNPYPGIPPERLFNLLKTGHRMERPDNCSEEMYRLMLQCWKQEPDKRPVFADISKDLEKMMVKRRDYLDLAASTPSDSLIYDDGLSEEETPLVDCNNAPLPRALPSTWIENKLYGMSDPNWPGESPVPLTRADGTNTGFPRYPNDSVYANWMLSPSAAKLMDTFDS

Chain of Proto-oncogene tyrosine-protein kinase receptor Ret (Mus musculus) (P35546 whole entry, the tested form may be a part): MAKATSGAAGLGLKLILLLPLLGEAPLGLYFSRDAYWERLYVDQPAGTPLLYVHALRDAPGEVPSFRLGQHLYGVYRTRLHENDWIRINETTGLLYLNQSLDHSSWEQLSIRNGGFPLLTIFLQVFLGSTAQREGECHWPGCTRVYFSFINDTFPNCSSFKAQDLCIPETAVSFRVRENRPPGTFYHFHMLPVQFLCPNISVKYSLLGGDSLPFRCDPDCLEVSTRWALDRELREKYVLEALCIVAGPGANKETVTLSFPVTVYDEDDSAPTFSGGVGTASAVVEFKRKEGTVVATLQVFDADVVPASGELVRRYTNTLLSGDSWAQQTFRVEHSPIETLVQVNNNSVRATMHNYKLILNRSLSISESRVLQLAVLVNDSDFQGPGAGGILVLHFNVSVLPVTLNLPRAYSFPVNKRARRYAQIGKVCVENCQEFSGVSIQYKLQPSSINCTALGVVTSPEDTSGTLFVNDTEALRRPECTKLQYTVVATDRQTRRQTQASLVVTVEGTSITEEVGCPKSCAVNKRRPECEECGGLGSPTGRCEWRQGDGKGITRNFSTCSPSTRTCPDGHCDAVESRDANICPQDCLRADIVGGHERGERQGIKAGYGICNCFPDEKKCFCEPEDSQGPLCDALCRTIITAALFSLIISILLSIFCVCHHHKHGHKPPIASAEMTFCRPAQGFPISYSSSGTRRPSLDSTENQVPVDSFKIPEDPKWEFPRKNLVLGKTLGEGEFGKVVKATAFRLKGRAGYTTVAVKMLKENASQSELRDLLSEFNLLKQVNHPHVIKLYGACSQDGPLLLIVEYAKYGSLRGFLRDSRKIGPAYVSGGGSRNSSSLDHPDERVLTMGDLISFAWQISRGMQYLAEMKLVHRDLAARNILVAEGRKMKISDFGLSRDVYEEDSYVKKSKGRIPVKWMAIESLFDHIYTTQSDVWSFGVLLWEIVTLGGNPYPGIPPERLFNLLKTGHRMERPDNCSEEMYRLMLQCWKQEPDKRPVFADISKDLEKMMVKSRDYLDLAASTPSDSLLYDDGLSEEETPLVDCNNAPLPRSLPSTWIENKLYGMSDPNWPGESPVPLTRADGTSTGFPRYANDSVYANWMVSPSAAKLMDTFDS

inhibition [1]	inhibition [2]	IC50 (BaF3) [nM]	inhibition [3]	inhibition (INH) [4]	inhibition [5]	IC50 [6] [nM]	Compound
Dose-dependent effect	Dose-dependent effect	433	Dose-dependent effect	Not Active	Dose-dependent effect	–	CC(O)c1cc(-c2nn(C(C)C)c3ncnc(N)c23)no1 (centres undefined)
–	–	454	–	–	–	–	CC(C)n1nc(-c2cc(CO)on2)c2c(N)ncnc21
–	–	> 1000	–	–	–	56.5	CC(C)n1nc(C#Cc2ccccc2)c2c(N)ncnc21
